{"source": "ChEMBL document CHEMBL1154758", "about": "(J Med Chem, 2010)", "key": {"Carbonic anhydrase 15": {"target": "T1, Carbonic anhydrase 15 (Mus musculus, UniProt Q99N23)", "T1 sequence (Q99N23 whole entry)": "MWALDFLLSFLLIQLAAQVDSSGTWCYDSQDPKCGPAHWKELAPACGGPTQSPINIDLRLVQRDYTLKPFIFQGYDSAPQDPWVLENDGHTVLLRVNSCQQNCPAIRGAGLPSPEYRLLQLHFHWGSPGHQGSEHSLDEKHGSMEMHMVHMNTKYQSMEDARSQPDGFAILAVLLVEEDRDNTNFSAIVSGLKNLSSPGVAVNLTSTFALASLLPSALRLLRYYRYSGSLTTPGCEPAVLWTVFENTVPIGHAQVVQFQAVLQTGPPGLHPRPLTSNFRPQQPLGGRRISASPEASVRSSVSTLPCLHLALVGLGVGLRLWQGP"}, "Carbonic anhydrase 3": {"target": "Carbonic anhydrase 3 (Homo sapiens, UniProt P07451)", "sequence (P07451 whole entry)": "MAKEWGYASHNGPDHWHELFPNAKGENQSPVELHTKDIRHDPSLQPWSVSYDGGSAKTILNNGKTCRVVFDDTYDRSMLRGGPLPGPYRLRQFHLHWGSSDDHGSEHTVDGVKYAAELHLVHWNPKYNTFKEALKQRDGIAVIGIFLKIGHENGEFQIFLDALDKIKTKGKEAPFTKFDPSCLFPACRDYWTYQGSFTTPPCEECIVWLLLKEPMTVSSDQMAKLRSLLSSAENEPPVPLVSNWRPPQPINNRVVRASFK"}, "Carbonic anhydrase 12": {"target": "Carbonic anhydrase 12 (Homo sapiens, UniProt O43570)", "sequence (O43570 whole entry)": "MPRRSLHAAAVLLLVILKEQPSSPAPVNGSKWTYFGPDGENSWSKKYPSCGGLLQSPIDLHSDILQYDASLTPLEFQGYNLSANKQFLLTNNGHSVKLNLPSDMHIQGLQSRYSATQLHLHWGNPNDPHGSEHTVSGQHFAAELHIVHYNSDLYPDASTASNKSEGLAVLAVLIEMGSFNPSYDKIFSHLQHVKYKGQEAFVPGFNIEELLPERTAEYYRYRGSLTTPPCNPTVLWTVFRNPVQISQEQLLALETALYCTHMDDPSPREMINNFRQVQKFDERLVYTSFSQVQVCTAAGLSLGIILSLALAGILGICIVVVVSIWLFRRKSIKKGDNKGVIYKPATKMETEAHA", "experiment": "Inhibition of human recombinant CA12 by stopped flow CO2 hydrase assay"}, "Carbonic anhydrase 1": {"target": "Carbonic anhydrase 1 (Homo sapiens, UniProt P00915)", "sequence (P00915 whole entry)": "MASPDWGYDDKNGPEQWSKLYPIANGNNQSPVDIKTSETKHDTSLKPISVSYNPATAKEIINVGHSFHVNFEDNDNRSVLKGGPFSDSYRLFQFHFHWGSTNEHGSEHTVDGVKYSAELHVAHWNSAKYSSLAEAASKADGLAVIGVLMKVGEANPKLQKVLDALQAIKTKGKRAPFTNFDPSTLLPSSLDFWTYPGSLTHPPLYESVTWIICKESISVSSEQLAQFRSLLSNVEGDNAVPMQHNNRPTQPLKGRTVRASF"}, "Carbonic anhydrase 6": {"target": "Carbonic anhydrase 6 (Homo sapiens, UniProt P23280)", "sequence (P23280 whole entry)": "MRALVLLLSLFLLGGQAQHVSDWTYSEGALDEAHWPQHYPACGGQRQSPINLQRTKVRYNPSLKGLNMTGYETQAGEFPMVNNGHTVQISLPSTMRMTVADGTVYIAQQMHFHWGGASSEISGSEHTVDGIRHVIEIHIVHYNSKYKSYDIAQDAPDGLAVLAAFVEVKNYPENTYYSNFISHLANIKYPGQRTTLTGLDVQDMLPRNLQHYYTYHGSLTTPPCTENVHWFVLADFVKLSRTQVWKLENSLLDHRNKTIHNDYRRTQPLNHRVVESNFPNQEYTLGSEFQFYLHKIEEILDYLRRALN"}, "Carbonic anhydrase 13": {"target": "Carbonic anhydrase 13 (Homo sapiens, UniProt Q8N1Q1)", "sequence (Q8N1Q1 whole entry)": "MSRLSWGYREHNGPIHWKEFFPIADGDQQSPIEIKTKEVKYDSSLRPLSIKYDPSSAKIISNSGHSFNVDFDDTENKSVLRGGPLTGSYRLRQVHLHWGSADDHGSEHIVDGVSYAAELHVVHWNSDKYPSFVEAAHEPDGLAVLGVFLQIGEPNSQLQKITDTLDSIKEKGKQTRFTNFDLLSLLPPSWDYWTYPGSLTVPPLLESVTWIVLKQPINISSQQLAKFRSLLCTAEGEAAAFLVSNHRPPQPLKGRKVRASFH"}, "Carbonic anhydrase 14": {"target": "Carbonic anhydrase 14 (Homo sapiens, UniProt Q9ULX7)", "sequence (Q9ULX7 whole entry)": "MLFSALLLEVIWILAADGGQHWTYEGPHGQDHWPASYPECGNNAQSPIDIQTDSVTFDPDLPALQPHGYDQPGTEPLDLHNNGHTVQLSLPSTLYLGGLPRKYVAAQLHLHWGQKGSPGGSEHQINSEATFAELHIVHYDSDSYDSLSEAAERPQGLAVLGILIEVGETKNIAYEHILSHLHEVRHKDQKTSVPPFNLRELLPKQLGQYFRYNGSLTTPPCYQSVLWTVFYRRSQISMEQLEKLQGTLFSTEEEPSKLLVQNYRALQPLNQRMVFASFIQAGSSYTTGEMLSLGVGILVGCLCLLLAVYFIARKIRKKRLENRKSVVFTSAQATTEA"}, "Carbonic anhydrase 4": {"target": "Carbonic anhydrase 4 (Homo sapiens, UniProt P22748)", "sequence (P22748 whole entry)": "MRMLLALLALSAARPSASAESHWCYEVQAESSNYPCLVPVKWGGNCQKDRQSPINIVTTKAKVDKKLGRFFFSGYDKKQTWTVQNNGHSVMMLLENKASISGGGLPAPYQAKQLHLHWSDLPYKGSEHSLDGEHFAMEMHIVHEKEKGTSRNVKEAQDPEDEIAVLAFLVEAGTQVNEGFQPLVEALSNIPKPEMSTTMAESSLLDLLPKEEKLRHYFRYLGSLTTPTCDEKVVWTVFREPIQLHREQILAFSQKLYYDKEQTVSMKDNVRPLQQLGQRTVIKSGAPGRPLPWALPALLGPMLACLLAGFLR"}, "Carbonic anhydrase 7": {"target": "Carbonic anhydrase 7 (Homo sapiens, UniProt P43166)", "sequence (P43166 whole entry)": "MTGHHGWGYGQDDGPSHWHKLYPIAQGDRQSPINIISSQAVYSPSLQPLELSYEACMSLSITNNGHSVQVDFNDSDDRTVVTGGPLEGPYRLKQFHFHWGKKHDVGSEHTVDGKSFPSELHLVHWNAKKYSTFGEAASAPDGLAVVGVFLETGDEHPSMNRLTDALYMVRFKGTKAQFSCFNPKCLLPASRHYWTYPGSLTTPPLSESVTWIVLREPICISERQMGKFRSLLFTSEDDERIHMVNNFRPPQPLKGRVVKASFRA", "experiment": "Inhibition of human recombinant CA7 by stopped flow CO2 hydrase assay"}, "[1]": {"target": "Carbonic anhydrase 5B, mitochondrial (Homo sapiens, UniProt Q9Y2D0)", "sequence (Q9Y2D0 whole entry)": "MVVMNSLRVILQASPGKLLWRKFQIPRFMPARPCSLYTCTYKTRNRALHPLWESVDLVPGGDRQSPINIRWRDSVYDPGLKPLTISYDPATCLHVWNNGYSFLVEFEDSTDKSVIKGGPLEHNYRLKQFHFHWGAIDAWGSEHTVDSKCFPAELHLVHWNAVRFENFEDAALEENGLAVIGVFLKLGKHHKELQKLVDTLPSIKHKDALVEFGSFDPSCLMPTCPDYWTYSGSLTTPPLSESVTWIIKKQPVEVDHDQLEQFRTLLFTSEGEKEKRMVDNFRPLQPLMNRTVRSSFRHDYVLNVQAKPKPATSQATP"}, "[2]": {"target": "Carbonic anhydrase 5A, mitochondrial (Homo sapiens, UniProt P35218)", "sequence (P35218 whole entry)": "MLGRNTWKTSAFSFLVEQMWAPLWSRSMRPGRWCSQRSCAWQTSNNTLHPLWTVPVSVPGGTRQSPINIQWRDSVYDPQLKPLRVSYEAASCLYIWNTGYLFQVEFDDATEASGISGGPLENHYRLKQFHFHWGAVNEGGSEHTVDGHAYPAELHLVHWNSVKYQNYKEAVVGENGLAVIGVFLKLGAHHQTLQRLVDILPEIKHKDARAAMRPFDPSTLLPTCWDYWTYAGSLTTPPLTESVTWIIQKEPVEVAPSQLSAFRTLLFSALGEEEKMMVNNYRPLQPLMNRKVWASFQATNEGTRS"}, "Carbonic anhydrase 9": {"target": "Carbonic anhydrase 9 (Homo sapiens, UniProt Q16790)"}}}
{"smiles": "COc1cc2oc(=O)ccc2cc1[C@@H](O)CC(C)C", "values": [{"measurement": "Ki", "setting": "Carbonic anhydrase 15", "result": 93100, "unit": "nM"}]}
{"smiles": "COC[C@@H](NC(C)=O)C(=O)NCc1ccccc1", "note": "[LACOSAMIDE]", "values": [{"measurement": "Ki", "setting": "Carbonic anhydrase 3", "result": 374, "unit": "nM"}, {"measurement": "Ki", "setting": "Carbonic anhydrase 12", "result": 3710, "unit": "nM"}, {"measurement": "Ki", "setting": "Carbonic anhydrase 1", "result": 362, "unit": "nM"}, {"measurement": "Ki", "setting": "Carbonic anhydrase 15", "result": 461, "unit": "nM"}, {"measurement": "Ki", "setting": "Carbonic anhydrase 6", "result": 412, "unit": "nM"}, {"measurement": "Ki", "setting": "Carbonic anhydrase 13", "result": 1210, "unit": "nM"}, {"measurement": "Ki", "setting": "Carbonic anhydrase 14", "result": 473, "unit": "nM"}, {"measurement": "Ki", "setting": "Carbonic anhydrase 4", "result": 525, "unit": "nM"}, {"measurement": "Ki", "setting": "Carbonic anhydrase 7", "result": 4450, "unit": "nM"}, {"measurement": "Ki", "setting": "[1]", "result": 341, "unit": "nM"}, {"measurement": "Ki", "setting": "[2]", "result": 4570, "unit": "nM"}, {"measurement": "Ki", "setting": "Carbonic anhydrase 9", "result": 353, "unit": "nM"}]}
{"smiles": "Nc1ccc(S(N)(=O)=O)cc1", "note": "[SULFANILAMIDE]", "values": [{"measurement": "Ki", "setting": "Carbonic anhydrase 3", "result": 988, "unit": "nM"}, {"measurement": "Ki", "setting": "Carbonic anhydrase 13", "result": 32, "unit": "nM"}]}
